Measured values: US10899737B2, “Piperazine carbamates and methods of making and using same” (Lundbeck La Jolla Research Center, Inc., priority 2016, dated 2021)

Tests used:
MAGL [1] = target: T1, MAGL (Homo sapiens, UniProt Q99685); assay: In vitro competitive activity-based protein profiling (human), MAGL; type: biochemical; conditions: for inhibition at 1 µM: 1 μM inhibitor, human proteome, 30 min preincubation at 37° C, read-out: MAGL % inh. 1 μM (human); for IC50: human PC3
T1 construct: Proteomes (human prefrontal cortex or cell membrane fractions); from tissue
T1 sequence (Q99685 1-303): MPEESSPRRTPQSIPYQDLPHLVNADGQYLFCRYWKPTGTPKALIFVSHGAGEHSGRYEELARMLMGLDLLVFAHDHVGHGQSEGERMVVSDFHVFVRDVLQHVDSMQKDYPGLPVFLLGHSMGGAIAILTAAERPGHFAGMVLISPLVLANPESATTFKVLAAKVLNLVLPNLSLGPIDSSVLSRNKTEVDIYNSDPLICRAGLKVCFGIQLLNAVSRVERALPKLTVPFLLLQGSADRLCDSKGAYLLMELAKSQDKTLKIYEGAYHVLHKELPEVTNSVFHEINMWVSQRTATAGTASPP
Description: (§1) In Vitro Competitive Activity-Based Protein Profiling (Human).
(§2) Proteomes (human prefrontal cortex or cell membrane fractions) (50 μL, 1.0-2.0 mg/mL total protein concentration) were preincubated with varying concentrations of inhibitors at 37° C. After 30 min, FP-Rh or JW912 (1.0 μL, 50 μM in DMSO) was added and the mixture was incubated for another 30 min at room temperature. Reactions were quenched with SDS loading buffer (15 μL-4×) and run on SDS-PAGE. Following gel imaging, serine hydrolase activity was determined by measuring fluorescent intensity of gel bands corresponding to MAGL and ABHD6 using ImageJ 1.49 k software.

ABHD6 [2] = target: T2, ABHD6 (Homo sapiens, UniProt Q9BV23); assay: In vitro competitive activity-based protein profiling (human), ABHD6; type: biochemical; conditions: human PC3
T2 construct: Proteomes (human prefrontal cortex or cell membrane fractions); endogenous in cells; human prefrontal cortex
T2 sequence (Q9BV23 1-337): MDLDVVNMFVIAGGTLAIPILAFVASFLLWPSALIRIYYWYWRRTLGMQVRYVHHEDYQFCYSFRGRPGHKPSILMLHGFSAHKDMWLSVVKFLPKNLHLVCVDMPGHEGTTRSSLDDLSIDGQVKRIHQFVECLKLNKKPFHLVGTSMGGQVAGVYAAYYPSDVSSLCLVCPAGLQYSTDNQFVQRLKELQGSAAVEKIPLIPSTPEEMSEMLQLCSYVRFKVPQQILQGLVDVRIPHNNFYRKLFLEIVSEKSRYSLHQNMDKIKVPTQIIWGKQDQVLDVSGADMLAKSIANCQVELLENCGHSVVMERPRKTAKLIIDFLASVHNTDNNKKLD
Description: as §1, §2

MAGL [3] = target: T3, MAGL (Mus musculus, UniProt O35678); assay: In vitro competitive activity-based protein profiling (mouse), MAGL; type: biochemical; conditions: for inhibition at 1 µM: 1 μM inhibitor, mouse brain membrane fraction or cell lysates, read-out: MAGL % inh. 1 μM (mouse); for IC50: mouse proteome
T3 construct: Proteomes (mouse brain membrane fraction or cell lysates); from tissue; host or cells: mouse brain membrane fraction or cell lysates
T3 sequence (O35678 1-303): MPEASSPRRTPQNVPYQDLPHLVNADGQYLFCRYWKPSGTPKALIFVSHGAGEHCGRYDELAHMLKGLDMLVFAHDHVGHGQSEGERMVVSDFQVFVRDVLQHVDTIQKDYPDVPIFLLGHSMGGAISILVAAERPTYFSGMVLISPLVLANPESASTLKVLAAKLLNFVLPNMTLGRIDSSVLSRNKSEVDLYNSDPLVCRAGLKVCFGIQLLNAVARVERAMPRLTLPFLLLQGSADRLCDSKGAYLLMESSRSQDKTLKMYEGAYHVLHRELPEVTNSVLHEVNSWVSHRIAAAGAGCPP
Description: (§3) In Vitro Competitive Activity-Based Protein Profiling (Mouse).
(§4) Proteomes (mouse brain membrane fraction or cell lysates) (50 μL, 1.0 mg/mL total protein concentration) were preincubated with varying concentrations of inhibitors at 37° C. After 30 min, FP-Rh (1.0 μL, 50 μM in DMSO) was added and the mixture was incubated for another 30 min at 37° C. Reactions were quenched with SDS loading buffer (50 μL-4×) and run on SDS-PAGE. Following gel imaging, serine hydrolase activity was determined by measuring fluorescent intensity of gel bands corresponding to MAGL and ABHD6 using ImageJ 1.49 k software. Data from this assay is shown in Table 1 (% inhibition at 1 μM).

ABHD6 [4] = target: T4, ABHD6 (Mus musculus, UniProt Q8R2Y0); assay: In vitro competitive activity-based protein profiling (mouse), ABHD6; type: biochemical; conditions: 1 μM inhibitor, mouse brain membrane fraction or cell lysates; read-out: ABHD6 % inh. 1 μM (mouse)
T4 construct: Proteomes (mouse brain membrane fraction or cell lysates); from tissue; host or cells: mouse brain membrane fraction or cell lysates
T4 sequence (Q8R2Y0 1-336): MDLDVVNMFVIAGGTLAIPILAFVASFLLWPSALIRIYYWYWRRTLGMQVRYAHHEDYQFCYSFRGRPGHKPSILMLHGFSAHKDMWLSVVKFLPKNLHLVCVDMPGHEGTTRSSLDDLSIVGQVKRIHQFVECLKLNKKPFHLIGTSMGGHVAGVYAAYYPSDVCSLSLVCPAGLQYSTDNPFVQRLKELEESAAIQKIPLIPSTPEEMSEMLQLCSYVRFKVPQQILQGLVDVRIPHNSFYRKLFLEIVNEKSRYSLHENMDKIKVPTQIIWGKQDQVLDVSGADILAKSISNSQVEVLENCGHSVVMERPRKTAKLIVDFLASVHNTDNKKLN
Description: as §3, §4

MAGL [5] = target: T3, MAGL; assay: Mouse brain proteomes from inhibitor treated mice, MAGL inhibition; type: in vivo; conditions: 5 mg/kg oral gavage, C57Bl/6J mouse brain, 4 h following administration; read-out: MAGL % inh. 5 mg/kg (mouse)
Description: Preparation of Mouse Brain Proteomes from Inhibitor Treated Mice.
Inhibitors were administered to wild-type C57Bl/6J by oral gavage in a vehicle of polyethylene glycol. Each animal was sacrificed 4 h following administration and brain proteomes were prepared and analyzed according to previously established methods (See Niphakis, M. J., et al. (2011) ACS Chem. Neurosci. and Long, J. Z., et al. Nat. Chem. Biol. 5:37-44).

inhibition at 1 µM (MAGL [1])	IC50 (MAGL [1])	IC50 (ABHD6 [2])	inhibition at 1 µM (MAGL [3])	inhibition at 1 µM (ABHD6 [4])	inhibition at 5 mg/kg (MAGL [5])	IC50 (MAGL [3])	SMILES
≥ 75%	≤ 0.1 µM	1 to 10 µM	≥ 75%	0 to 25%	50 to 75%	–	O=C(O)CN1CCC(c2cc(C(F)(F)F)ccc2CN2CCN(C(=O)OC(C(F)(F)F)C(F)(F)F)CC2)C1 (stereo not shown) [Example 2, 2-(3-(2-((4-(((1,1,1,3,3,3-Hexafluoropropan-2-yl)oxy)carbonyl)piperazin-1-yl)methyl)-5-(trifluoromethyl)phenyl)pyrrolidin-1-yl)acetic Acid]
≥ 75%	≤ 0.1 µM	0.1 to 1 µM	≥ 75%	≥ 75%	0 to 25%	≤ 0.1 µM	O=C(O)Cn1ccc(-c2cc(C(F)(F)F)ccc2CN2CCN(C(=O)OC(C(F)(F)F)C(F)(F)F)CC2)n1 [Example 3, 2-(3-(2-((4-(((1,1,1,3,3,3-Hexafluoropropan-2-yl)oxy)carbonyl)piperazin-1-yl)methyl)-5-(trifluoromethyl)phenyl)-1H-pyrazol-1-yl)acetic Acid]
≥ 75%	≤ 0.1 µM	1 to 10 µM	≥ 75%	0 to 25%	≥ 75%	≤ 0.1 µM	O=C(OC(C(F)(F)F)C(F)(F)F)N1CCN(Cc2ccc(C(F)(F)F)cc2C2(C(=O)O)CCCC2)CC1 [Example 4, 1-(2-((4-(((1,1,1,3,3,3-Hexafluoropropan-2-yl)oxy)carbonyl)piperazin-1-yl)methyl)-5-(trifluoromethyl)phenyl)cyclopentane-1-carboxylic Acid]
≥ 75%	≤ 0.1 µM	0.1 to 1 µM	≥ 75%	≥ 75%	0 to 25%	–	CCC(C(=O)O)n1cc(-c2cc(C(F)(F)F)ccc2CN2CCN(C(=O)OC(C(F)(F)F)C(F)(F)F)CC2)cn1 (stereo not shown) [Example 5, 2-(4-(2-((4-(((1,1,1,3,3,3-Hexafluoropropan-2-yl)oxy)carbonyl)piperazin-1-yl)methyl)-5-(trifluoromethyl)phenyl)-1H-pyrazol-1-yl)butanoic Acid]
≥ 75%	≤ 0.1 µM	1 to 10 µM	≥ 75%	≥ 75%	0 to 25%	≤ 0.1 µM	O=C(O)Cn1cc(-c2cc(C(F)(F)F)ccc2CN2CCN(C(=O)OC(C(F)(F)F)C(F)(F)F)CC2)cn1 [Example 6, 2-(4-(2-((4-(((1,1,1,3,3,3-Hexafluoropropan-2-yl)oxy)carbonyl)piperazin-1-yl)methyl)-5-(trifluoromethyl)phenyl)-1H-pyrazol-1-yl)acetic Acid]
≥ 75%	–	–	≥ 75%	0 to 25%	25 to 50%	≤ 0.1 µM	O=C(O)CN1CCN(c2cc(C(F)(F)F)ccc2CN2CCN(C(=O)OC(C(F)(F)F)C(F)(F)F)CC2)CC1 [Example 42]
≥ 75%	≤ 0.1 µM	0.1 to 1 µM	≥ 75%	≥ 75%	–	–	O=C(O)C1COCCN1c1cc(CN2CCN(C(=O)OC(C(F)(F)F)C(F)(F)F)CC2)cc(C(F)(F)F)c1 (stereo not shown) [Example 68, 4-(3-((4-(((1,1,1,3,3,3-hexafluoropropan-2-yl)oxy)carbonyl)piperazin-1-yl)methyl)-5-(trifluoromethyl)phenyl)morpholine-3-carboxylic acid]
≥ 75%	≤ 0.1 µM	0.1 to 1 µM	≥ 75%	0 to 25%	–	–	N#Cc1ccc(CN2CCN(C(=O)OC(C(F)(F)F)C(F)(F)F)CC2)c(N2CCC(C(=O)O)CC2)c1 [Example 69, 1-(5-cyano-2-((4-(((1,1,1,3,3,3-hexafluoropropan-2-yl)oxy)carbonyl)piperazin-1-yl)methyl)phenyl)piperidine-4-carboxylic acid]
≥ 75%	0.1 to 1 µM	1 to 10 µM	≥ 75%	0 to 25%	–	–	O=C(O)C1COCCN1c1cc(C(F)(F)F)ccc1CN1CCN(C(=O)OC(C(F)(F)F)C(F)(F)F)CC1 (stereo not shown) [Example 71, 4-(2-((4-(((1,1,1,3,3,3-hexafluoropropan-2-yl)oxy)carbonyl)piperazin-1-yl)methyl)-5-(trifluoromethyl)phenyl)morpholine-3-carboxylic acid]
≥ 75%	≤ 0.1 µM	1 to 10 µM	≥ 75%	≥ 75%	–	–	O=C(O)C1CCN(c2cc(C(F)F)ccc2CN2CCN(C(=O)OC(C(F)(F)F)C(F)(F)F)CC2)CC1 [Example 72, 1-(5-(difluoromethyl)-2-((4-(((1,1,1,3,3,3-hexafluoropropan-2-yl)oxy)carbonyl)piperazin-1-yl)methyl)phenyl)piperidine-4-carboxylic acid]
≥ 75%	≤ 0.1 µM	1 to 10 µM	≥ 75%	50 to 75%	–	–	O=C(O)C1CCN(c2cc(F)ccc2CN2CCN(C(=O)OC(C(F)(F)F)C(F)(F)F)CC2)CC1 [Example 73, 1-(5-fluoro-2-((4-(((1,1,1,3,3,3-hexafluoropropan-2-yl)oxy)carbonyl)piperazin-1-yl)methyl)phenyl)piperidine-4-carboxylic acid]
≥ 75%	≤ 0.1 µM	0.1 to 1 µM	≥ 75%	25 to 50%	–	–	O=C(O)[C@H]1CCCN(c2cc(C(F)(F)F)ccc2CN2CCN(C(=O)OC(C(F)(F)F)C(F)(F)F)CC2)C1 [Example 80, (S)-1-(2-((4-(((1,1,1,3,3,3-hexafluoropropan-2-yl)oxy)carbonyl)piperazin-1-yl)methyl)-5-(trifluoromethyl)phenyl)piperidine-3-carboxylic acid]
≥ 75%	≤ 0.1 µM	0.1 to 1 µM	≥ 75%	≥ 75%	–	–	O=C(O)[C@H]1CCCN(c2cc(CN3CCN(C(=O)OC(C(F)(F)F)C(F)(F)F)CC3)cc(C(F)(F)F)c2)C1 [Example 81, (S)-1-(3-((4-(((1,1,1,3,3,3-hexafluoropropan-2-yl)oxy)carbonyl)piperazin-1-yl)methyl)-5-(trifluoromethyl)phenyl)piperidine-3-carboxylic acid]
